Measurements as given in ChEMBL document CHEMBL3407452, “Linear and branched alkyl-esters and amides of gallic acid and other (mono-, di- and tri-) hydroxy benzoyl derivatives as promising anti-HCV inhibitors” (Eur J Med Chem, 2015).
Active and inactive are the calls of the source. No cut-off for these calls is given here.

Key:
Hepatitis C virus = assay: Antiviral activity against HCV genotype 1b I389luc-ubi-neo/NS3-3'/5.1 replicons infected in human Huh5-2 HCV subgenomic replicon-containing cells assessed as reduction in virus replication after 3 days by luciferase reporter gene assay; format: functional, Hepacivirus hominis; details: Hepatitis C virus, genotype 1b, Huh-5-2, 72 h; for EC50: read-out: EC50
[1] = Cytotoxicity against human Huh5-2 cells after 72 hrs by MTS assay; format: cell-based, Huh-5-2
Vaccinia virus = assay: Antiviral activity against vaccinia virus; format: functional, organism-based; details: Orthopoxvirus vaccinia
[2] = system: Respiratory syncytial virus; assay: Antiviral activity against RSV; format: functional, organism-based
Felid alphaherpesvirus 1 = assay: Antiviral activity against feline herpesvirus; format: functional, organism-based
Feline coronavirus = assay: Antiviral activity against feline coronavirus; format: functional, organism-based
Coxsackievirus B4 = assay: Antiviral activity against human coxsackievirus B4; format: functional, organism-based
Punta Toro virus = assay: Antiviral activity against punta toro virus; format: functional, organism-based
Human respirovirus 3 = assay: Antiviral activity against human parainfluenza virus 3; format: functional, organism-based
[3] = Cytotoxicity against human CEM cells assessed as inhibition of cell proliferation; format: cell-based; details: CEM cells (CCRF-CEM)
Influenza A virus = assay: Antiviral activity against influenza A virus (H1N1); format: functional, organism-based
[4] = system: Vesicular stomatitis virus; assay: Antiviral activity against vesicular stomatitis virus; format: functional, organism-based
Reovirus sp. = assay: Antiviral activity against reovirus; format: functional, organism-based
[5] = system: Human immunodeficiency virus 2; assay: Antiviral activity against HIV2 ROD infected in human CEM cells assessed as reduction in virus-induced cytopathicity after 4 to 5 days by microscopy based syncytium cell formation assay; format: functional, organism-based, ISOLATE ROD, CCRF-CEM; details: Human immunodeficiency virus 2, ISOLATE ROD, CCRF-CEM; read-out: EC50
Influenza A virus H3N2 = assay: Antiviral activity against influenza A virus H3N2; format: functional, organism-based
Chikungunya virus = assay: Antiviral activity against chikungunya virus; format: functional
Sindbis virus = assay: Antiviral activity against sindbis virus; format: functional, organism-based
[6] = system: Human immunodeficiency virus 1; assay: Antiviral activity against HIV1 3B infected in human CEM cells assessed as reduction in virus-induced cytopathicity after 4 to 5 days by microscopy based syncytium cell formation assay; format: functional, organism-based, CCRF-CEM; details: Human immunodeficiency virus 1, 3B, CCRF-CEM; read-out: EC50

| Compound | EC50 (Hepatitis C virus) | CC50 at 72 h [1] | Activity (Vaccinia virus) | Activity [2] | Activity (Felid alphaherpesvirus 1) | Activity (Feline coronavirus) | Activity (Coxsackievirus B4) | Activity (Punta Toro virus) | Activity (Human respirovirus 3) | CC50 [3] | Activity (Influenza A virus) | Activity [4] | Activity (Reovirus sp.) | EC50 [5] | Activity (Influenza A virus H3N2) | Activity (Chikungunya virus) | Activity (Sindbis virus) | EC50 [6] | EC90 (Hepatitis C virus) |
| --- | --- | --- | --- | --- | --- | --- | --- | --- | --- | --- | --- | --- | --- | --- | --- | --- | --- | --- | --- |
| O=C(NCCCCCCNC(=O)c1ccc(O)c(O)c1O)c1ccc(O)c(O)c1O | 14 µM | 32 µM | inactive | inactive | inactive | inactive | inactive | inactive | inactive | 102 µM | inactive | inactive | inactive | > 50 µM | inactive | inactive | inactive | > 50 µM | – |
| O=C(NCCCCNC(=O)c1ccc(O)c(O)c1O)c1ccc(O)c(O)c1O | 15 µM | > 50 µM | inactive | inactive | inactive | inactive | inactive | inactive | inactive | 109 µM | inactive | inactive | inactive | > 10 µM | inactive | inactive | inactive | > 10 µM | > 50 µM |
| CCCCCCOC(=O)c1cc(O)c(O)c(O)c1 [HEXYL GALLATE] | 9 µM | > 50 µM | inactive | inactive | inactive | inactive | inactive | inactive | inactive | 14 µM | inactive | inactive | inactive | 6.6 µM | inactive | inactive | inactive | 5.4 µM | > 50 µM |
| CCCCOC(=O)c1cc(O)c(O)c(O)c1 [BUTYL GALLATE] | 13 µM | 29 µM | inactive | inactive | inactive | inactive | inactive | inactive | inactive | 55 µM | inactive | inactive | inactive | > 10 µM | inactive | inactive | inactive | > 10 µM | > 29 µM |
| O=C(NCCCCCCCCNC(=O)c1ccc(O)c(O)c1O)c1ccc(O)c(O)c1O | 25 µM | 34 µM | inactive | inactive | inactive | inactive | inactive | inactive | inactive | 82 µM | inactive | inactive | inactive | > 50 µM | inactive | inactive | inactive | > 50 µM | – |
| O=C(NCCN(CCNC(=O)c1cc(O)c(O)c(O)c1)CCNC(=O)c1cc(O)c(O)c(O)c1)c1cc(O)c(O)c(O)c1 | > 2.9 µM | > 2.9 µM | inactive | inactive | inactive | inactive | inactive | inactive | inactive | 54 µM | inactive | inactive | inactive | – | inactive | inactive | inactive | 10 µM | > 2.9 µM |
| O=C(NCCCCNC(=O)c1cc(O)c(O)c(O)c1)c1cc(O)c(O)c(O)c1 | 18 µM | 29 µM | inactive | inactive | inactive | inactive | inactive | inactive | inactive | 23 µM | inactive | inactive | inactive | > 10 µM | inactive | inactive | inactive | 5.2 µM | > 29 µM |
| COc1ccc(C(=O)NCCCCCCCCCCCCNC(=O)c2ccc(OC)c(OC)c2OC)c(OC)c1OC | > 3.5 µM | 5.4 µM | – | – | – | – | – | – | – | – | – | – | – | – | – | – | – | – | – |
